Results from patent US20240293563A1, “GLP-1 RECEPTOR LIGAND MOIETY CONJUGATED OLIGONUCLEOTIDES AND USES THEREOF” (priority 2017, published 2024).
Square brackets hold non-standard residues; d marks the D form. Side chains are listed from the residue outwards. Ends that are not written are not given here. 5'‑hexylamino oligonucleotide ISIS 786434 = not defined here; Aib = CC(C)(N)C(=O)O; Mpa = O=C(O)CCS

How the values were obtained:
MALAT1 mRNA [1] = assay: Dose dependent antisense inhibition of MALAT1 in hGLP1R-HEK cells; format: cell-based, human; conditions: approximately 24 hrs, qRT-PCR normalized to RPLP0
Protocol: The hGLP1R-HEK cell line was generated by expressing hGLP1R in Flp-IN™ 293 cells. Cultured hGLP1R-HEK cells were seeded at a density 30,000 cells per well in 96 well plates and saline, 100 nM or 10 μM of unconjugated parent antisense oligonucleotide ISIS 556089 targeted to MALAT1 described above or ISIS 776102 (nucleobase sequence: […]) (SEQ ID NO: 64) targeted to FOXO1, or corresponding GLP-1 peptide conjugated antisense oligonucleotides (ISIS 816385 targeted to MALAT1 described above or ION 913193 targeted to FOXO1 described above) for approximately 24 hrs. After the treatment period, cells were harvested, the mRNA isolated and adjusted to total RNA content as measured by nanadrop UV-Vis spectrophotometer. MALAT1 or FOXO1 mRNA levels were measured by quantitative real-time PCR and normalized to the mRNA levels of the house keeping gene (RPLP0) in the same samples. Human MALAT1 mRNA levels were measured using gene expression assays HS00273907 and FOXO1 mRNA levels were measured using assay Hs01054576 (Applied Biosystems). The mRNA level of the house keeping gene RPLP0 was measured using a primer probe set with forward sequence […] CAT […] (SEQ ID NO: 66), reverse sequence […] (SEQ ID NO: 67). […]
After the treatment period cells were harvested, mRNA isolated and MALAT1 mRNA levels measured by quantitative real-time PCR using the primer probe set as described herein (Example 7). […]

MALAT1 mRNA [2] = assay: Dose dependent antisense inhibition of MALAT1 in WT HEK293 cells; format: cell-based, human; conditions: approximately 24 hrs, qRT-PCR normalized to RPLP0
MALAT1 [3] = assay: MALAT1 expression in pancreas by in situ hybridization (RNAscope); format: in vivo, mouse; conditions: 2 μmol/kg, 72 hrs after last dose
Excerpt: Female C57BL/6Crl mice were assigned to five treatment groups. […] All animals were sacrificed approximately 72 hrs after last dose, and pancreas harvested for ex vivo analysis of uptake of antisense oligonucleotides by immunohistochemistry.
Female C57BL/6Crl mice were assigned to five treatment groups as described herein (Example 11) All animals were sacrificed approximately 72 hrs after last dose, and pancreas harvested for ex vivo analysis of MALAT1 expression by in situ hybridization.
The in situ mRNA amplification and labelling process was performed on the Ventana Discovery ULTRA, an Automated ISH platform(Ventana Medical System, Inc) using the RNAscope® VS Assay based on Advanced Cell Diagnostics (ACD). Customized probes were obtained from ACD for the detection of MALAT1 mRNA, and various parameters were tested to optimize the novel RNAscope method for ISH. The signal was amplified using multiple steps, followed by labeled probes and detected using the RNAscope® 2.5 VS Reagent Kit-RED. Stained slides were analyzed under a standard bright-field microscope.

MALAT1 [4] = assay: Effect of peptide composition and attachment point on peptide-conjugated ASO activity in LVX-GLP1R cells; format: cell-based, human; conditions: 7 doses in a 4-fold dilution series, MALAT1 RNA
[5] = Food intake of mice after single subcutaneous injection of GLP-1 conjugated ASO; format: in vivo, mouse
Protocol: Groups of eight mice were administered a single subcutaneous injection of 0.01, 0.03, or 0.1 μmol/kg of ION 816385 (GLP-1 conjugated MALAT-1 ASO conjugated via a disulfide linker) or 0.1 μmol/kg ION 1123118 (GLP-1 conjugated MALAT-1 ASO conjugated via a maleimide acid linker), as indicated in the table below, and food intake was measured for 24 hours. Food intake of eight mice administered a subcutaneous injection of PBS was monitored as a control.

In the case of “ISIS 816385 (H[Aib]EGTFTSDVSSYLEEQAAKEFIAWLVKGGPSSGAPPPSC([Mpa-5'‑hexylamino oligonucleotide ISIS 786434])-NH2; reading uncertain; also: Cys40 joined to the linker by a disulfide)”, the IC50 (MALAT1 mRNA [1]) is reported as 20 nM, the IC50 (MALAT1 mRNA [2]) is reported as 2210 nM and the “MALAT1 expression in the pancreatic islet of Langerhans” value (MALAT1 [3]; subcutaneous or intravenous (ISIS 556089 subcutaneous only)) is reported as “reduced”. For the same substance, the “MALAT1 expression in the exocrine tissue of pancreas” value (MALAT1 [3]; subcutaneous or intravenous) was “not in the exocrine tissue”, the IC50 (MALAT1 [4]) was 350 nM and the “Cumulative Food Intake” value ([5]; 0.01 μmol/kg single s.c., Time 1 h) was 0.10 g. The “Cumulative Food Intake” value ([5]; 0.01 μmol/kg single s.c., Time 2 h) was 0.25 g, the “Cumulative Food Intake” value ([5]; 0.01 μmol/kg single s.c., Time 3 h) was 0.40 g and the “Cumulative Food Intake” value ([5]; 0.01 μmol/kg single s.c., Time 4 h) was 0.56 g. The “Cumulative Food Intake” value ([5]; 0.01 μmol/kg single s.c., Time 5 h) was 0.71 g, the “Cumulative Food Intake” value ([5]; 0.01 μmol/kg single s.c., Time 6 h) was 0.86 g and the “Cumulative Food Intake” value ([5]; 0.01 μmol/kg single s.c., Time 7 h) was 1.09 g. The “Cumulative Food Intake” value ([5]; 0.01 μmol/kg single s.c., Time 8 h) was 1.23 g, the “Cumulative Food Intake” value ([5]; 0.01 μmol/kg single s.c., Time 9 h) was 1.34 g and the “Cumulative Food Intake” value ([5]; 0.01 μmol/kg single s.c., Time 10 h) was 1.47 g. For the same substance, the “Cumulative Food Intake” value ([5]; 0.01 μmol/kg single s.c., Time 11 h) was 1.61 g, the “Cumulative Food Intake” value ([5]; 0.01 μmol/kg single s.c., Time 12 h) was 1.81 g and the “Cumulative Food Intake” value ([5]; 0.01 μmol/kg single s.c., Time 13 h) was 1.97 g. For the same substance, the “Cumulative Food Intake” value ([5]; 0.01 μmol/kg single s.c., Time 14 h) was 2.22 g, the “Cumulative Food Intake” value ([5]; 0.01 μmol/kg single s.c., Time 15 h) was 2.26 g and the “Cumulative Food Intake” value ([5]; 0.01 μmol/kg single s.c., Time 16 h) was 2.31 g. For the same substance, the “Cumulative Food Intake” value ([5]; 0.01 μmol/kg single s.c., Time 17 h) was 2.57 g, the “Cumulative Food Intake” value ([5]; 0.01 μmol/kg single s.c., Time 18 h) was 2.57 g and the “Cumulative Food Intake” value ([5]; 0.01 μmol/kg single s.c., Time 19 h) was 2.58 g. For the same substance, the “Cumulative Food Intake” value ([5]; 0.01 μmol/kg single s.c., Time 20 h) was 2.64 g, the “Cumulative Food Intake” value ([5]; 0.01 μmol/kg single s.c., Time 21 h) was 2.64 g and the “Cumulative Food Intake” value ([5]; 0.01 μmol/kg single s.c., Time 22 h) was 2.69 g. The “Cumulative Food Intake” value ([5]; 0.01 μmol/kg single s.c., Time 23 h) was 2.69 g, the “Cumulative Food Intake” value ([5]; 0.01 μmol/kg single s.c., Time 24 h) was 2.69 g and the “Cumulative Food Intake” value ([5]; 0.03 μmol/kg single s.c., Time 1 h) was 0.15 g. The “Cumulative Food Intake” value ([5]; 0.03 μmol/kg single s.c., Time 2 h) was 0.21 g, the “Cumulative Food Intake” value ([5]; 0.03 μmol/kg single s.c., Time 3 h) was 0.26 g and the “Cumulative Food Intake” value ([5]; 0.03 μmol/kg single s.c., Time 4 h) was 0.31 g. The “Cumulative Food Intake” value ([5]; 0.03 μmol/kg single s.c., Time 5 h) was 0.38 g, the “Cumulative Food Intake” value ([5]; 0.03 μmol/kg single s.c., Time 6 h) was 0.48 g and the “Cumulative Food Intake” value ([5]; 0.03 μmol/kg single s.c., Time 7 h) was 0.53 g. The “Cumulative Food Intake” value ([5]; 0.03 μmol/kg single s.c., Time 8 h) was 0.55 g, the “Cumulative Food Intake” value ([5]; 0.03 μmol/kg single s.c., Time 9 h) was 0.66 g and the “Cumulative Food Intake” value ([5]; 0.03 μmol/kg single s.c., Time 10 h) was 0.73 g. For the same substance, the “Cumulative Food Intake” value ([5]; 0.03 μmol/kg single s.c., Time 11 h) was 0.79 g, the “Cumulative Food Intake” value ([5]; 0.03 μmol/kg single s.c., Time 12 h) was 0.89 g and the “Cumulative Food Intake” value ([5]; 0.03 μmol/kg single s.c., Time 13 h) was 0.99 g. The “Cumulative Food Intake” value ([5]; 0.03 μmol/kg single s.c., Time 14 h) was 1.07 g, the “Cumulative Food Intake” value ([5]; 0.03 μmol/kg single s.c., Time 15 h) was 1.09 g and the “Cumulative Food Intake” value ([5]; 0.03 μmol/kg single s.c., Time 16 h) was 1.22 g. The “Cumulative Food Intake” value ([5]; 0.03 μmol/kg single s.c., Time 17 h) was 1.23 g, the “Cumulative Food Intake” value ([5]; 0.03 μmol/kg single s.c., Time 18 h) was 1.26 g and the “Cumulative Food Intake” value ([5]; 0.03 μmol/kg single s.c., Time 19 h) was 1.29 g. For the same substance, the “Cumulative Food Intake” value ([5]; 0.03 μmol/kg single s.c., Time 20 h) was 1.33 g, the “Cumulative Food Intake” value ([5]; 0.03 μmol/kg single s.c., Time 21 h) was 1.39 g and the “Cumulative Food Intake” value ([5]; 0.03 μmol/kg single s.c., Time 22 h) was 1.39 g. The “Cumulative Food Intake” value ([5]; 0.03 μmol/kg single s.c., Time 23 h) was 1.39 g, the “Cumulative Food Intake” value ([5]; 0.03 μmol/kg single s.c., Time 24 h) was 1.39 g and the “Cumulative Food Intake” value ([5]; 0.1 μmol/kg single s.c., Time 1 h) was 0.06 g. For the same substance, the “Cumulative Food Intake” value ([5]; 0.1 μmol/kg single s.c., Time 2 h) was 0.12 g, the “Cumulative Food Intake” value ([5]; 0.1 μmol/kg single s.c., Time 3 h) was 0.17 g and the “Cumulative Food Intake” value ([5]; 0.1 μmol/kg single s.c., Time 4 h) was 0.20 g. For the same substance, the “Cumulative Food Intake” value ([5]; 0.1 μmol/kg single s.c., Time 5 h) was 0.26 g, the “Cumulative Food Intake” value ([5]; 0.1 μmol/kg single s.c., Time 6 h) was 0.28 g and the “Cumulative Food Intake” value ([5]; 0.1 μmol/kg single s.c., Time 7 h) was 0.31 g. The “Cumulative Food Intake” value ([5]; 0.1 μmol/kg single s.c., Time 8 h) was 0.37 g, the “Cumulative Food Intake” value ([5]; 0.1 μmol/kg single s.c., Time 9 h) was 0.39 g and the “Cumulative Food Intake” value ([5]; 0.1 μmol/kg single s.c., Time 10 h) was 0.44 g. For the same substance, the “Cumulative Food Intake” value ([5]; 0.1 μmol/kg single s.c., Time 11 h) was 0.49 g, the “Cumulative Food Intake” value ([5]; 0.1 μmol/kg single s.c., Time 12 h) was 0.50 g and the “Cumulative Food Intake” value ([5]; 0.1 μmol/kg single s.c., Time 13 h) was 0.58 g. The “Cumulative Food Intake” value ([5]; 0.1 μmol/kg single s.c., Time 14 h) was 0.62 g, the “Cumulative Food Intake” value ([5]; 0.1 μmol/kg single s.c., Time 15 h) was 0.67 g and the “Cumulative Food Intake” value ([5]; 0.1 μmol/kg single s.c., Time 16 h) was 0.75 g. For the same substance, the “Cumulative Food Intake” value ([5]; 0.1 μmol/kg single s.c., Time 17 h) was 0.76 g, the “Cumulative Food Intake” value ([5]; 0.1 μmol/kg single s.c., Time 18 h) was 0.83 g and the “Cumulative Food Intake” value ([5]; 0.1 μmol/kg single s.c., Time 19 h) was 0.89 g. For the same substance, the “Cumulative Food Intake” value ([5]; 0.1 μmol/kg single s.c., Time 20 h) was 0.90 g, the “Cumulative Food Intake” value ([5]; 0.1 μmol/kg single s.c., Time 21 h) was 0.91 g and the “Cumulative Food Intake” value ([5]; 0.1 μmol/kg single s.c., Time 22 h) was 0.93 g. The “Cumulative Food Intake” value ([5]; 0.1 μmol/kg single s.c., Time 23 h) was 0.93 g and the “Cumulative Food Intake” value ([5]; 0.1 μmol/kg single s.c., Time 24 h) was 0.94 g.
